Test results from paper PMC12313710, “Targeting the BAG2/CHIP axis promotes gastric cancer apoptosis by blocking apoptosome assembly” (Frontiers in Immunology, 2025).

Biological target: T1, CHIP (Homo sapiens, UniProt Q9UNE7)
T1 construct: gene STUB1; commercial human recombinant CHIP (OriGene)
T1 sequence (Q9UNE7 1-303): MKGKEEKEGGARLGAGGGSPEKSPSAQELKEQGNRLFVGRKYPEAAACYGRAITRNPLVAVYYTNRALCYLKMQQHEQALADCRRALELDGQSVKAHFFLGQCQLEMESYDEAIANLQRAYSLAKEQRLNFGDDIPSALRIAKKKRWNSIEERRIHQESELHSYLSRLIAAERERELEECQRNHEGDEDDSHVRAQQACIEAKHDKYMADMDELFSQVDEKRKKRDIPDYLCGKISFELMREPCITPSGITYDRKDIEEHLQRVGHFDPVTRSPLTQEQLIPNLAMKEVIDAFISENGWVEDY
Test: microscale thermophoresis, Monolith NT.[…], single-site fit
Assay type: binding

Kd: 1.83 µM
Compound: C=CC(=O)Nc1ccc(CN2C(=O)N(c3cc(OC)cc(OC)c3)Cc3cnc(Nc4ccc(N5CCN(C)CC5)cc4)nc32)cc1 [FIIN-2]
